The values below come from patent US8853258B2, “C-linked hydroxamic acid derivatives useful as antibacterial agents” (Pfizer Inc., priority 2009, dated 2014).

Series [1] addresses Pseudomonas aeruginosa LpxC enzyme (Pseudomonas aeruginosa (strain ATCC 15692 / DSM 22644 / CIP 104116 / JCM 14847 / LMG 12228 / 1C / PRS 101 / PAO1), UniProt P47205). Put plainly: IC50 Assay, LpxC Enzyme from P. aeruginosa (PA LpxC Enzyme IC50). The following applies: Table 3; read-out: PA LpxC enzyeme IC^50. The class given is biochemical. In outline:
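Product formation quantified by RapidFire HTMS after a 1 h enzyme reaction quenched with 1N HCl.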

Series [2] concerns Pseudomonas aeruginosa UI-18: Wild-type (PA-7). Briefly: MIC determination (CLSI), PA-7. The class given is cell-based. The settings on record: Pseudomonas aeruginosa; Table 3; read-out: PA-7 MIC. Summed up:
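Wild-type P. aeruginosa UI-18 tested for minimum inhibitory concentration. Broth/agar dilution following CLSI standards (M7-A7, M100-S18).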

Series [3] concerns Acinetobacter baumanii/haemolyticus: Multidrug-resistant clinical isolate (AB-3167). Briefly: MIC determination (CLSI), AB-3167. The settings on record: Acinetobacter baumannii; Table 3; read-out: AB-3167 MIC. The class given is cell-based. In outline: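 Multidrug-resistant clinical isolate AB-3167 (A. baumannii/haemolyticus) tested for minimum inhibitory concentration following CLSI dilution susceptibility standards M7-A7 and M100-S18.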

The test system of series [4] is Klebsiella pneumoniae: Ciprofloxacin-resistant isolate, ESBL, clinical isolate (KP-3700). Put plainly: MIC determination (CLSI), KP-3700. It is filed as cell-based. In outline:
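Strain KP-3700, a clinical isolate producing extended-spectrum β-lactamases and resistant to ciprofloxacin, was tested. Minimum inhibitory concentrations determined via CLSI dilution methodology (M7-A7; M100-S18).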

Series [5] has as its system Escherichia coli EC-1: VOGEL, mouse virulent. Put plainly: MIC determination (CLSI), EC-1. It is filed as cell-based. The settings on record: Escherichia coli, read-out: EC-1 MIC. In outline:
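E. coli Vogel, a mouse-virulent strain (EC-1), was tested. MICs were set by dilution susceptibility testing per CLSI standards M7-A7/M100-S18.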

pIC50: −log10 of the molar value. ≈ marks a conversion by molar mass, not a printed value. A value given as a limit tells only on which side of the number the result lay.

For orientation: MIC means the smallest concentration in the dilution series that meets the test's criterion for growth inhibition. With `Cc1cccc(Cc2noc(COc3ccc(CCC(C)(C(=O)NO)S(C)(=O)=O)cc3)n2)c1` (centres unmarked) [Example 289, N-hydroxy-2-methyl-4-(4-{[3-(3-methylbenzyl)-1,2,4-oxadiazol-5-yl]methoxy}phenyl)-2-(methylsulfonyl)butanamide], the pIC50 in series [1] is 7.98. Besides, the MIC is at least 64 µg/mL in series [2], at least 64 µg/mL in series [3] and 32 µg/mL (≈ 67.6 µM) in series [5]. For the same compound, the “KP-3700 MIC” value in series [4] is given as “≧64 mg/L”.

For the compound `Cc1nncn1-c1ccc(OCCOc2ccc(CCC(C)(C(=O)NO)S(C)(=O)=O)cc2)cc1` (centres unmarked) [Example 290, N-hydroxy-2-methyl-2-(methylsulfonyl)-4-(4-{2-[4-(3-methyl-4H-1,2,4-triazol-4-yl)phenoxy]ethoxy}phenyl)butanamide], in series [1], the pIC50 was 8.45. In addition, the MIC was at least 64 µg/mL in series [2], at least 64 µg/mL in series [3] and 8 µg/mL (≈ 16.4 µM) in series [5]. Also, the “KP-3700 MIC” value in series [4] was determined as 32 µg/mL.

For `Cc1ccc(F)c(-c2noc(COc3ccc(CCC(C)(C(=O)NO)S(C)(=O)=O)cc3)n2)c1` (centres unmarked) [Example 291, 4-(4-{[3-(2-fluoro-5-methylphenyl)-1,2,4-oxadiazol-5-yl]methoxy}phenyl)-N-hydroxy-2-methyl-2-(methylsulfonyl)butanamide], the pIC50 in series [1] was 8.03. In addition, the MIC is at least 64 µg/mL in series [2], at least 64 µg/mL in series [3] and 16 µg/mL (≈ 33.5 µM) in series [5]. Further, in series [4], the “KP-3700 MIC” value is listed as “≧64 mg/L”.

As for `CC(C)CCOc1ccc(CCC(C)(C(=O)NO)S(C)(=O)=O)cc1` (centres unmarked) [Example 292, N-hydroxy-2-methyl-4-[4-(3-methylbutoxy)phenyl]-2-(methylsulfonyl)butanamide], in series [1], the pIC50 was 8.95. Further, the results for the MIC in series [2], in series [3] and in series [5] were 8 µg/mL (≈ 22.4 µM), 16 µg/mL (≈ 44.8 µM) and 16 µg/mL (≈ 44.8 µM), respectively. In addition, in series [4], the “KP-3700 MIC” value is “≧64 mg/L”.

Consider `CC(CCc1ccc(OCc2c(F)cc(F)cc2F)cc1)(C(=O)NO)S(C)(=O)=O` (centres unmarked) [Example 293, N-hydroxy-2-methyl-2-(methylsulfonyl)-4-{4-[(2,4,6-trifluorobenzyl)oxy]phenyl}butanamide], for which the pIC50 in series [1] is 9.02. Also, the MIC in series [2] was 4 µg/mL (≈ 9.27 µM); in series [3], 32 µg/mL (≈ 74.2 µM); in series [5], 4 µg/mL (≈ 9.27 µM). Also, the “KP-3700 MIC” value in series [4] is 32 µg/mL.

With `CC(CCc1ccc(OCc2ccc(F)cc2F)cc1)(C(=O)NO)S(C)(=O)=O` (centres unmarked) [Example 294, 4-{4-[(2,4-difluorobenzyl)oxy]phenyl}-N-hydroxy-2-methyl-2-(methylsulfonyl)butanamide], in series [1], the pIC50 was 9.00. For the same compound, the values for the MIC in series [2], in series [3] and in series [5] were 4 µg/mL (≈ 9.67 µM), 32 µg/mL (≈ 77.4 µM) and 4 µg/mL (≈ 9.67 µM), respectively. For the same compound, the “KP-3700 MIC” value in series [4] is 16 µg/mL.

With `CCCCCc1noc(COc2ccc(CCC(C)(C(=O)NO)S(C)(=O)=O)cc2)n1` (centres unmarked) [Example 295, N-hydroxy-2-methyl-2-(methylsulfonyl)-4-{4-[(3-pentyl-1,2,4-oxadiazol-5-yl)methoxy]phenyl}butanamide], the pIC50 in series [1] is 7.90. In addition, the MIC is at least 64 µg/mL in series [2], at least 64 µg/mL in series [3] and 32 µg/mL (≈ 72.8 µM) in series [5]. Also, the “KP-3700 MIC” value in series [4] is “≧64 mg/L”.

Turning to `CC(CCc1ccc(OCc2cccc3cccnc23)cc1)(C(=O)NO)S(C)(=O)=O` (centres unmarked) [Example 296, N-hydroxy-2-methyl-2-(methylsulfonyl)-4-[4-(quinolin-8-ylmethoxy)phenyl]butanamide], the pIC50 in series [1] is 7.80. For the same compound, the MIC in series [2] was at least 64 µg/mL; in series [3], 32 µg/mL (≈ 74.7 µM); in series [5], 8 µg/mL (≈ 18.7 µM). In series [4], the “KP-3700 MIC” value is 16 µg/mL.

With `CC(CCc1ccc(OCCCOc2ccccc2)cc1)(C(=O)NO)S(C)(=O)=O` (centres unmarked) [Example 297, N-hydroxy-2-methyl-2-(methylsulfonyl)-4-[4-(3-phenoxypropoxy)phenyl]butanamide], in series [1], the pIC50 is 7.37. The MIC in series [2] was at least 64 µg/mL; in series [3] it was 32 µg/mL (≈ 75.9 µM); in series [5], 16 µg/mL (≈ 38 µM). Moreover, in series [4], the “KP-3700 MIC” value is “≧64 mg/L”.

For `CC(CCc1ccc(OCc2nc(-c3cccc(Cl)c3)no2)cc1)(C(=O)NO)S(C)(=O)=O` (centres unmarked) [Example 298, 4-(4-{[3-(3-chlorophenyl)-1,2,4-oxadiazol-5-yl]methoxy}phenyl)-N-hydroxy-2-methyl-2-(methylsulfonyl)butanamide], the pIC50 in series [1] was 8.78. Besides, the results for the MIC in series [2], in series [3] and in series [5] were 32 µg/mL (≈ 66.7 µM), 16 µg/mL (≈ 33.3 µM) and 16 µg/mL (≈ 33.3 µM), respectively. The “KP-3700 MIC” value in series [4] stood at 32 µg/mL.

Regarding `CC(C)c1ccc(-c2noc(COc3ccc(CCC(C)(C(=O)NO)S(C)(=O)=O)cc3)n2)cc1` (centres unmarked) [Example 299, N-hydroxy-4-(4-{[3-(4-isopropylphenyl)-1,2,4-oxadiazol-5-yl]methoxy}phenyl)-2-methyl-2-(methylsulfonyl)butanamide], the pIC50 in series [1] was 8.41. Besides, the MIC is at least 64 µg/mL in series [2], at least 64 µg/mL in series [3] and 16 µg/mL (≈ 32.8 µM) in series [5]. In addition, in series [4], the “KP-3700 MIC” value is on record as “≧64 mg/L”.

With `CC(CCc1ccc(OCc2nc(C3CCC3)no2)cc1)(C(=O)NO)S(C)(=O)=O` (centres unmarked) [Example 300, 4-{4-[(3-cyclobutyl-1,2,4-oxadiazol-5-yl)methoxy]phenyl}-N-hydroxy-2-methyl-2-(methylsulfonyl)butanamide], in series [1], the pIC50 was 8.12. The MIC in series [2] was 32 µg/mL (≈ 75.6 µM); in series [3], at least 64 µg/mL; in series [5], 16 µg/mL (≈ 37.8 µM). The “KP-3700 MIC” value in series [4] turned out to be 32 µg/mL.

As for `CC(CCc1ccc(OCc2ccc(C(F)(F)F)cc2)cc1)(C(=O)NO)S(C)(=O)=O` (centres unmarked) [Example 301, N-hydroxy-2-methyl-2-(methylsulfonyl)-4-(4-{[4-(trifluoromethyl)benzyl]oxy}phenyl)butanamide], the pIC50 in series [1] was 8.68. Also, the MIC in series [2] amounted to 8 µg/mL (≈ 18 µM); in series [3], 4 µg/mL (≈ 8.98 µM); in series [5] it was 4 µg/mL (≈ 8.98 µM). For the same compound, the “KP-3700 MIC” value in series [4] was found to be 8 µg/mL.

In the case of `Cc1oc(-c2cccc(F)c2)nc1COc1ccc(CCC(C)(C(=O)NO)S(C)(=O)=O)cc1` (centres unmarked) [Example 302, 4-(4-{[2-(3-fluorophenyl)-5-methyl-1,3-oxazol-4-yl]methoxy}phenyl)-N-hydroxy-2-methyl-2-(methylsulfonyl)butanamide], in series [1], the pIC50 is 7.90. For the same compound, the MIC in series [2] is at least 64 µg/mL; in series [3], at least 64 µg/mL; in series [5] it was 16 µg/mL (≈ 33.6 µM). Further, the “KP-3700 MIC” value in series [4] is on record as “≧64 mg/L”.

`CC(CCc1ccc(OCc2cccnc2)cc1)(C(=O)NO)S(C)(=O)=O` (centres unmarked) [Example 303, N-hydroxy-2-methyl-2-(methylsulfonyl)-4-[4-(pyridin-3-ylmethoxy)phenyl]butanamide]: the pIC50 in series [1] was 8.34. Also, the MIC is 16 µg/mL (≈ 42.3 µM) in series [2], at least 64 µg/mL in series [3] and at least 64 µg/mL in series [5]. Moreover, the “KP-3700 MIC” value in series [4] was “≧64 mg/L”.

Turning to `CC(CCc1ccc(OCc2ccc(-n3cccn3)cc2)cc1)(C(=O)NO)S(C)(=O)=O` (centres unmarked) [Example 304, N-hydroxy-2-methyl-2-(methylsulfonyl)-4-(4-{[4-(1H-pyrazol-1-yl)benzyl]oxy}phenyl)butanamide], the pIC50 in series [1] is 8.70. The MIC in series [2] was 16 µg/mL (≈ 36.1 µM); in series [3] it was 32 µg/mL (≈ 72.1 µM); in series [5], 4 µg/mL (≈ 9.02 µM). The “KP-3700 MIC” value in series [4] was found to be 16 µg/mL.
